According to patent publication US20260083751A1, “ALLOSTERIC MODULATORS OF ANDROGEN RECEPTOR COACTIVATOR RECRUITMENT FOR CRPC THERAPY” (University of Pittsburgh – Of the Commonwealth System of …, priority 2022, published 2026):
Read-outs that look alike come from different tables or passages of the source.

How the values were obtained:
[1] = system: PC-3, DU-145, LNCaP, C4-2, and 22Rv1 PC cell lines; assay: Prostate cancer cell line growth inhibition assays, results stated across cell lines; assay type: cell-based; conditions: for GI50s against all 5 PCa cell lines: all 5 cell lines, 72 h; for Relative potency in AR positive versus AR negative PC cell lines: 72 h growth inhibition; for GI50s against the 3 AR+ PCa cell lines: LNCaP, C4-2, 22Rv1
Description: Prostate Cancer Cell Line Growth Inhibition Assays: The PC-3, DU-145, LNCaP, C4-2, and 22Rv1 PC cell line growth inhibition assays have been described previously (Fancher et al., Assay Drug Dev Technol. 2016, 14:453-477; Fancher et al., Assay Drug Dev Technol. 2019, 17:364-386). On day 1, each PC cell line was harvested, counted, and seeded into two 384-well assay plates, a time zero (T0) and a time 72 h (T72) plate. PC cell lines were all seeded at 1,000 cells per well in 45 μL of tissue culture media in uncoated white clear bottom 384-well assay plates (VWR, #82050-076) using a Matrix electronic multichannel pipette (Thermo Fisher Scientific, Waltham, MA) and cultured overnight at 37° C., 5% CO2, and 95% humidity. On day 2, 25 μL of the CellTiter-Glo® (CTG) (Promega Corporation, Madison, WI) detection reagent was dispensed into the wells of the TO assay plate using a Matrix electronic multichannel pipette, and the RLUs were captured on the SpectraMax® M5e (Molecular Devices LLC, Sunnyvale, CA) microtiter plate reader. Also on day 2, 5 μL of compounds were transferred into the test wells of the T72 384-well assay plates which were returned to the incubator for 72 h. Control wells received DMSO alone. On day 5, 25 μL of the CTG detection reagent was dispensed into the wells of the T72 assay plate using a Matrix electronic multichannel pipette, and the RLU's were captured on the SpectraMax® M5e microtiter plate reader platform.
(§1) For the 96-well AR-LBD H^3-DHT radioligand binding assay, eight minimum and maximum plate control wells were utilized to normalize the data. For the PC cell line growth inhibition assays the DMSO control data from the TO and T72 assay plates was used to assess the dynamic range of the T0 to T72 cell growth, and to calculate S:B ratios and Z′-factor coefficient statistics for the assay signal window (T0 to T72). To normalize the 72 h compound exposure PC growth inhibition data, the signals from the compound treated wells were processed and expressed as % of the T72 DMSO plate controls. IC50 and GI50 values for each of the bioassays were calculated using GraphPad Prism 9 software to plot and fit data to curves using the Sigmoidal dose response variable slope equation Y=Bottom+[Top-Bottom]/[1+10^(Log EC50−X)*HillSlope].

AR-TIF2 PPI = target: T1, AR-TIF2 PPI (Homo sapiens, UniProt P10275); assay: AR-TIF2 PPIB HCS assay: disruption of preformed DHT-induced AR-TIF2 PPI complexes (DHT then compound); assay type: cell-based; conditions: U-2 OS cells
T1 construct: AR-LBD residues (662-919) were incorporated into one biosensor; expressed in transfected cells; host or cells: U-2 OS osteosarcoma cells, coinfected with recombinant adenoviruses
T1 sequence (P10275 662-919): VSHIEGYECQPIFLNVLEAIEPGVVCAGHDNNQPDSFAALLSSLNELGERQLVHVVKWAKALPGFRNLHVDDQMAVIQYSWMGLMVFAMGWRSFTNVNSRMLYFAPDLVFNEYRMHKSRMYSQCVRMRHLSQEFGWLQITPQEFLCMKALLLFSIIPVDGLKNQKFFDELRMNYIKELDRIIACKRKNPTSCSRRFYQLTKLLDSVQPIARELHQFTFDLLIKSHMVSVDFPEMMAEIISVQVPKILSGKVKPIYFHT
Description: AR-TIF2 Protein-Protein Interaction Biosensor Assay: The AR-TIF2 PPIB HCS assay was performed in U-2 OS osteosarcoma cells as described previously (Fancher et al., Assay Drug Dev Technol. 2016, 14:453-477; Fancher et al., Assay Drug Dev Technol. 2018, 16:297-319; Hua et al., Assay Drug Dev Technol. 2014, 12:395-418; Hua et al., Methods Mol Biol. 2018, 1683:211-227). Briefly, U-2 OS cells were coinfected with recombinant adenovirus biosensor expression constructs and seeded at 2,500 cells per well in 384-well collagen-coated microplates (Greiner Bio-One #781956) and plates were incubated overnight at 37° C. in 5% CO2 and 95% humidity. […] After the appropriate time, assay plates were fixed by transfer of 50 μL of pre-warmed (37° C.) 7.4% formaldehyde and 2 μg/mL Hoechst 33342 in PBS and incubation at room temperature for 30 minutes. Liquid was aspirated, plates were washed twice with 85 μL PBS, leaving the final wash in the plate. Plates were sealed with adhesive aluminum plate seals, and fluorescent images of three fields of view were acquired in the DAPI (Hoechst stained nuclei), FITC (TIF2-GFP) and Texas Red (AR-RFP) channels on an ImageXpress® Micro (IXM) automated HCS platform (Molecular Devices LLC, Sunnyvale, CA) using a 10× Plan Fluor 0.3 NA objective. Images were analyzed using the Translocation Enhanced (TE) image analysis module of the MetaXpress® software (Molecular Devices, LLC, San Jose, CA) as described previously (Fancher et al., Assay Drug Dev Technol. 2016, 14:453-477; Fancher et al., Assay Drug Dev Technol. 2018, 16:297-319; Hua et al., Assay Drug Dev Technol. 2014, 12:395-418; Hua et al., Methods Mol Biol. 2018, 1683:211-227).
as §1
A positional AR-TFI2 protein-protein interaction biosensor (PPIB) assay was used to identify small molecules that inhibited DHT-induced formation of AR-TIF2 PPIs and/or disrupted pre-existing AR-TIF2 PPIs (Fancher et al., Assay Drug Dev Technol 2016, 14(8):453-477; Fancher et al., Assay Drug Dev Technol 2018, 16(6):297-319; Hua et al., Assay Drug Dev Technol 2014, 12:395-418; Hua et al., Methods Mol biol 2018, 1683:211-227). AR-LBD residues (662-919) were incorporated into one biosensor and TIF2 residues (725-840) containing the 3rd NR box LXXLL motif into the second interacting biosensor partner (Id.) The AR-TIF2 PPIB recapitulates the orthosteric ligand (OSL)-induced translocation of AR from the cytoplasm into the nucleus where PPIs with TIF2 result in colocalization of both biosensors in the nucleolus. Using three libraries, a total of 143,535 compounds were screened—a 10,000-compound ChemDiv PPI focused diversity library, a 50,000-compound ChemBridge diversity library, and a 83,535-compound library provided by the NCI's Chemical Biology Consortium. The 10K and 50K diversity libraries were subsets of 142K and 810K parent libraries, enabling screening of a representative subset of >1×10^6 compounds. AR-TIF2 PPI inhibitor and disruptor actives were confirmed in the HCS assay and counter screens designed to identify and exclude nuisance/interference or non-selective compounds (Fancher et al., Assay Drug Dev Technol 2018, 16(6):297-319). […]

[2] = 25 nM DHT, read-out: Disruption of DHT-induced AR-TIF2 PPIs IC50
[3] = DHT then compound, read-out: D then C IC50

Row | Compound | IC50 (AR-TIF2 PPI; [2]) [µM] | Relative potency in AR positive versus AR negative PC cell lines [1] | IC50 (AR-TIF2 PPI; [3]) [µM] | further results
1 | Cc1ccccc1-c1cc(O)c2c(c1)CN(c1nc(C(N)=O)cs1)CCO2 [Compound S1-1] | 24.8 |  |  | GI50s against all 5 PCa cell lines [1]: 29 to 70 µM
2 | Cc1nc(N)cc(N2CCOc3c(O)cc(-c4ccccc4C)cc3C2)n1 [Compound S1-2] |  | equipotent against all 5 PC cell lines | 63 | 
3 | Cc1ccccc1-c1cc(O)c2c(c1)CN(c1nccs1)CCO2 [Compound S1-3] |  | differential cytotoxicity in AR positive PC cell lines | 41.8 | GI50s against all 5 PCa cell lines [1]: 44 to 75 µM
4 | Cc1ccccc1-c1cc(O)c2c(c1)CN(c1cc(N)ncn1)CCO2 [Compound S1-4] | > 100 | equipotent against all 5 PC cell lines | > 100 | 
5 | COc1cc(-c2ccc(C)s2)cc2c1OCCN(c1nc(C(N)=O)cs1)C2 [Compound S1-5] | > 100 |  | > 100 | GI50s against all 5 PCa cell lines [1]: > 100 µM
6 | Cc1nsc(NC(=O)N2CCC(Sc3ccccc3C)CC2)n1 [Compound S2-6] | 5.64 |  | 5.8 | GI50s against the 3 AR+ PCa cell lines [1]: 14 to 19 µM
7 | Cc1nsc(NC(=O)N2CCC(Cn3ccnc3)CC2)n1 [Compound S2-7] | > 100 |  | > 100 | GI50s against the 3 AR+ PCa cell lines [1]: 30 to 64 µM; GI50s in AR negative cell lines ([1]; PC-3 and DU-145): ~94 µM; GI50s against all 5 PCa cell lines [1]: 30 to 94 µM
8 | Cc1c(-c2ccccc2F)[nH]c2ccc(CNC(=O)CCc3cn[nH]c3)cc12 [Compound S3-11] | 26.1 | differential cytotoxicity in AR positive PC cell lines |  | 
9 | Cc1c(-c2ccccc2F)[nH]c2ccc(CNC(=O)CCc3cnccn3)cc12 [Compound S3-12] |  | roughly equipotent against all 5 PC cell lines | 24.7 | 
10 | CC(=O)NCCC(=O)NCc1ccc2[nH]c(-c3ccccc3F)c(C)c2c1 [Compound S3-13] |  | roughly equipotent against all 5 PC cell lines | 37.6 | GI50s against 2 AR+ PCa cell lines ([1]; 2 AR+ cell lines, not named): 68 to 70 µM
11 | Cc1c(-c2ccccc2F)[nH]c2ccc(CNC(=O)c3ccc(CO)o3)cc12 [Compound S3-14] |  | differential cytotoxicity in AR positive PC cell lines | 16 | GI50s against the 3 AR+ PCa cell lines [1]: 30 to 100 µM
12 | Cc1c(-c2ccc(F)cc2)[nH]c2ccc(CNC(=O)c3ccc(CO)o3)cc12 [Compound S3-15] |  | roughly equipotent against all 5 PC cell lines | 30.6 | 
13 | Cc1cccc2c(-c3ccc(O)c(F)c3)c[nH]c12 [Compound S3-17] |  | roughly equipotent against all 5 PC cell lines | 8.8 | 
14 | CNC(=O)c1ccc(-c2c[nH]c3c(C)cccc23)cc1 [Compound S3-21] | > 100 | differential cytotoxicity in AR positive PC cell lines | > 100 | GI50s against 4 PCa cell lines ([1]; 4 cell lines, not named): 13 to 55 µM
